Assay results: patent publication US20250230138A1, “COMPOUNDS HAVING A T-STRUCTURE FORMED BY AT LEAST FOUR CYCLES FOR USE IN THE TREATMENT OF CANCER AND OTHER INDICATIONS” (TheRas, Inc., priority 2022, published 2025)
Like-named read-outs stand apart in the source and are kept apart here.

Legend:
[1] = biological target: Cys242 in human PIK3CA (157-299) (Homo sapiens (Human), UniProt P42336); assay: Covalent modification assay using MALDI-TOF MS; type: biochemical; details: 4 h reaction time point
Chain of Cys242 in human PIK3CA (157-299) (P42336 157-299): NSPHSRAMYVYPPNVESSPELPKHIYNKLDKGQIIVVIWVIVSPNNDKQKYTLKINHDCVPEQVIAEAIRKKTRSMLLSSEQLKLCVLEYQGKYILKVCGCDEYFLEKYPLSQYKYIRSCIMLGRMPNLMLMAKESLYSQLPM
Outline: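 PIK3CA (157-299), 3.33 or 1 μM in 20 mM HEPES, 150 mM NaCl, 2 mM MgCl2, pH 7.3, was incubated with compound at room temperature in the dark for 15 min, 30 min, 2 h or 4 h. Linear MALDI-TOF read-out; % modification = adduct peak height over summed heights of all protein species.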

pAKT in BT474 cells = assay: Cell-based pAKT HTRF assay in BT474 cells; details: BT474 cells, 4 hr incubation, read-out: pAKT inhibition IC50 in BT474 cells
Outline: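 Treatment lasts 4 hr in DMEM/10% FBS at 0.25% DMSO over nine 3-fold dilutions from 3 μM. The lysate is then probed by HTRF.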

[2] = 3.33 μM protein target, 1:7.5 protein to compound ratio (compounds 1-852)
[3] = 1 μM protein target, 1:5 protein to compound ratio (compounds 853-1279)
[4] = Homo sapiens, BT-474, Compounds 10-999

Structure (SMILES) | % of modification [1, 2] | IC50 (pAKT in BT474 cells; Compounds 10-999) | % of modification [1, 3] | IC50 (pAKT in BT474 cells; Compounds 1000-1279) | IC50 (pAKT in BT474 cells; [4])
C=CC(=O)N1CCn2cc(-c3nc(-c4ccc(=O)n(C)c4)c4ccsc4c3-c3ccc(F)cc3OCC3CCN(C)C(=O)C3)nc2C1 (stereo not shown) [Compound 264] | A (percent of modification of PIK3CA protein ≥75%) | > 3000 nM | – | – | –
C=CC(=O)N1CCn2nc(-c3nc(-c4ccc5c(c4)C(=O)N(C)C5)c4ccsc4c3-c3c(F)cc(F)cc3OCCO)cc2C1C (stereo not shown) [Compound 867] | – | < 100 nM | A (percent of modification of PIK3CA protein ≥75%) | – | –
C=CC(=O)N1CCn2nc(-c3nc(-c4ccc5c(cnn5C)c4)c4ccsc4c3-c3c(F)cc(F)cc3OC)cc2C1C (stereo not shown) [Compound 1111] | – | – | C (25%≤percent of modification <50%) | 100 to 1000 nM | –
C=CC(=O)N1CC[C@H](n2cc(-c3nc(-c4ccc5c(c4)CNC5=O)c4ccsc4c3-c3c(F)cc(F)cc3OC(C)C)cn2)C1 [Compound 334, 5-[7-(2,4-difluoro-6-isopropoxy-phenyl)-6-[1-[(3S)-1-prop-2-enoylpyrrolidin-3-yl]pyrazol-4-yl]thieno[3,2-c]pyridin-4-yl]isoindolin-1-one] | A (percent of modification of PIK3CA protein ≥75%) | – | – | – | < 100 nM
C=CC(=O)N1CCc2nc(-c3nc(-c4ccc5c(c4)CCNC5=O)c4ccsc4c3-c3ccc(F)cc3OCCOC)sc2C1 [Compound 118, 6-[7-[4-fluoro-2-(2-methoxyethoxy)phenyl]-6-(5-prop-2-enoyl-6,7-dihydro-4H-thiazolo[5,4-c]pyridin-2-yl)thieno[3,2-c]pyridin-4-yl]-3,4-dihydro-2H-isoquinolin-1-one] | A (percent of modification of PIK3CA protein ≥75%) | – | – | – | < 100 nM
C=CC(=O)N1CCc2ncc(-c3nc(-c4cn(C)cn4)c4ccsc4c3-c3c(F)cc(F)cc3OC(C)C)cc2C1 [Compound 421] | A (percent of modification of PIK3CA protein ≥75%) | < 100 nM | – | – | –
C=CC(=O)N1CCc2nc(-c3nc(-c4cnn(C)c4)c4ccsc4c3-c3c(F)cc(Cl)cc3OCCOC)sc2C1 [Compound 464] | A (percent of modification of PIK3CA protein ≥75%) | 100 to 1000 nM | – | – | –
C=CC(=O)N1CCc2nc(-c3nc(-c4ccc5nn(C)cc5c4)c4ccsc4c3-c3c(F)cc(F)cc3OCCO)sc2C1 [Compound 1053] | – | – | A (percent of modification of PIK3CA protein ≥75%) | < 100 nM | –
C=CC(=O)N1CCc2ccc(-c3nc(-c4cnc5c(c4)CNC(=O)C5)c4ccsc4c3-c3c(F)cc(F)cc3OCCOC)cc2C1 [Compound 579, (R)-3-(6-(2-acryloyl-1,2,3,4-tetrahydroisoquinolin-7-yl)-7-(2,4-difluoro-6-(2-methoxyethoxy)phenyl)thieno[3,2-c]pyridin-4-yl)-5,8-dihydro-1,6-naphthyridin-7(6H)-one] | D (percent of modification <25%) | 1000 to 3000 nM | – | – | –
C=CC(=O)N1CCc2nc(-c3nc(-c4cccc(C(C)(C)C#N)c4)c4ccsc4c3-c3c(F)cc(F)cc3OCCOC)sc2C1 [Compound 440] | D (percent of modification <25%) | 100 to 1000 nM | – | – | –
C=CC(=O)N1CC(n2cc(-c3nc(N4CCc5n[nH]c(=O)cc5C4)c4ccsc4c3-c3ccc(F)cc3OCCOC)cn2)C1 [Compound 158] | A (percent of modification of PIK3CA protein ≥75%) | 100 to 1000 nM | – | – | –
C=CC(=O)N1CCn2nc(-c3nc(-c4ccc(N5CCN(C)CC5)cc4)c4ccsc4c3-c3c(F)cc(F)cc3OCCOC)cc2C1C (stereo not shown) [Compound 1082] | – | – | A (percent of modification of PIK3CA protein ≥75%) | < 100 nM | –
COc1cc(F)ccc1-c1c(-c2cnn(C3CN(C(=O)/C=C/CN(C)C)C3)c2)nc(-c2cnn(CC(F)F)c2)c2ccsc12 [Compound 137] | C (25%≤percent of modification <50%) | 1000 to 3000 nM | – | – | –
C=CC(=O)N1CCn2nc(-c3nc(-c4ccc(CC(=O)NC)cc4)c4ccsc4c3-c3c(F)cc(F)cc3OCCOC)cc2C1C (stereo not shown) [Compound 1017] | – | – | A (percent of modification of PIK3CA protein ≥75%) | < 100 nM | –
